Test system: cell lines with elevated PHGDH expression (BT-20, MDA-MB-468, HCC70, Hs578T and MT3)
Assay: Cell proliferation assay after lentiviral shRNA infection
Format: cell-based, human
Conditions: media supplemented during PHGDH knockdown
Description: For PHGDH or PSPH knockdown experiments, 10,000-20,000 MDA-MB-468, BT-20, HCC70, MCF-7, or MDA-MB-23 I cells were infected with shRNA-expressing lentiviruses of known titers at a multiplicity of infection of 2.5 to 5. Cells were cultured in 12-well plates and infected via a 30-minute spin at 2,250 RPM in a Beckman Coulter Allegra X-12R centrifuge with an SX4750 rotor and uPlate Carrier attachment followed by an overnight incubation in media containing polybrene. Eight days after infection the number of cells was determined using a Coulter Counter (Beckman) and used to calculate relative cell proliferation. Where indicated, standard RPMI media was supplemented with serine to concentrations 5-fold that of the serine already in the media. Where indicated, supplementation occurred at one and four days after lentiviral infection. For serine depletion experiments, cells were plated out as described above and the following day the standard culture medium was replaced with medium lacking serine or reconstituted with 1× serine. Dialyzed serum (3 kDa MWCO) was utilized in serine depletion experiments except in the case of MCF-10A cells, where standard 5% serum was utilized.

Structure (SMILES) | effect of media supplementation on the PHGDH knockdown proliferation phenotype
N[C@@H](CO)C(=O)O [serine] | did not blunt the effects of the PHGDH knockdown
COC(=O)C(N)CO (centres unmarked) [methyl-serine-ester] | did not blunt the effects of the PHGDH knockdown

— US20140087970A1, “SERINE BIOSYNTHESIS PATHWAY INHIBITION FOR TREATMENT OF CANCER” (Whitehead Institute for Biomedical Research, priority 2011, published 2014)
